Test results published in patent US20240317744A1, “Bicyclic Ureas As Kinase Inhibitors” (Incyte Corporation, priority 2023, published 2024).

Columns and labels:
[1] = biological target: T1, pseudo-kinase domain (JH2, amino-acids 536-812) of human Wild Type JAK2 (Homo sapiens, UniProt O60674, F794H/W659A/W777A); test: JAK2 LanthaScreen JH2-WT Binding Assay; details: JAK2 JH2-WT 0.145 nM, 50 nM tracer, 1 hour at 25° C.; read-out: JH2 BIND WT
T1 construct: pseudo-kinase domain (JH2, amino-acids 536-812 with 3 surface mutations W659A, W777A, F794H); His (C); purchased BPS Bioscience 79463; host or cells: baculovirus expression system
Summary of the method: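 Biotinylated His-Avi-tagged JAK2 JH2 (0.145 nM), baculovirus-expressed, incubated with compounds, 50 nM fluorescent JH2 tracer and 0.25 nM streptavidin-Tb, 1 h at 25° C in pH 7.5 Tris buffer with MgCl2 and DTT. Non-specific binding defined with 2 mM ATP. TR-FRET read; IC50 from four-parameter fit.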

[2] = biological target: T2, catalytic domain (JH1, amino acids 826-1132) of human JAK2 (Homo sapiens, UniProt O60674); test: JAK2 LanthaScreen JH1 Binding Assay; details: JAK2 JH1 1.5 nM, 50 nM tracer, 2 hours at 25° C.; read-out: JH1 BIND
T2 construct: catalytic domain (JH1, amino acids 826-1132) of human JAK2; FLAG (N); biotin (biotinylated); purchased Carna Biosciences 08-445-20N; host or cells: baculovirus expression system
Summary of the method: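 TR-FRET tracer-displacement format: compound IC50 from four-parameter curves after 2 h at 25° C. Reaction held 1.5 nM biotinylated, FLAG-tagged JH1 (aa 826-1132), 50 nM tracer, 0.5 nM Streptavidin-Tb, pH 7.5 Tris buffer; 2 mM ATP set nonspecific background.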

[3] = biological target: T3, pseudo-kinase domain (JH2, amino-acids 536-812) of human V617F mutant JAK2 (Homo sapiens, UniProt O60674, F794H/V617F/W659A/W777A); test: JAK2 LanthaScreen JH2-V617F Binding Assay; details: JAK2 JH2-V617F 0.26 nM, 50 nM tracer, 1 hour at 25° C.; read-out: JH2 BIND V617F
T3 construct: pseudo-kinase domain (JH2, amino-acids 536-812 with 3 surface mutations W659A, W777A, F794H); His (C); purchased BPS Bioscience 79498; host or cells: baculovirus expression system
Summary of the method: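 Binding was measured as TR-FRET displacement of 50 nM tracer from 0.26 nM biotinylated His-Avi protein, incubated one hour at 25° C; IC50 from a four-parameter fit.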

[4] = biological target: catalytic domain (JH1, amino acids 808-1132) of human JAK2 (Homo sapiens, UniProt O60674); test: JAK2 HTRF Enzyme Activity Assay; format: biochemical; details: ATP 30 µM, 60 minutes at 25° C.; read-out: V617F ENZ 30 UM
Chain of catalytic domain (JH1, amino acids 808-1132) of human JAK2 (O60674 808-1132 limits assumed): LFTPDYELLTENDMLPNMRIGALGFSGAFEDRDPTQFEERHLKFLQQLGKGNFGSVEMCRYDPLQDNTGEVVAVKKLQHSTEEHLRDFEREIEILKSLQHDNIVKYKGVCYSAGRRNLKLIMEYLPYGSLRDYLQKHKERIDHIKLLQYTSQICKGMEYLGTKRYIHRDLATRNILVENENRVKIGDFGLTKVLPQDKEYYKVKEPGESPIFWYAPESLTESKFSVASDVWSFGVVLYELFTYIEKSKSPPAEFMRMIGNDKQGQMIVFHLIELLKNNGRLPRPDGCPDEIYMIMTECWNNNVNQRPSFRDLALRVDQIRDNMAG

T1 sequence (O60674 536-812 W659A/W777A/F794H): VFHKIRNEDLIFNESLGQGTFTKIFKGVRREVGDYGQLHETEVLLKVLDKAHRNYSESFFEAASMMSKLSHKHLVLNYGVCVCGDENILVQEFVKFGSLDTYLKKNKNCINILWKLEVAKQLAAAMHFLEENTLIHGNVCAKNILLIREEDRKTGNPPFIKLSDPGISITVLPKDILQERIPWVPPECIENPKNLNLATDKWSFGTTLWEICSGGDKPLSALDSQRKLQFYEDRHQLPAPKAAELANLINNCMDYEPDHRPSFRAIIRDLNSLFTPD
T3 sequence (O60674 536-812 V617F/W659A/W777A/F794H): as the sequence (O60674 536-812 W659A/W777A/F794H) above, with V82F counted along it
T2 sequence (O60674 826-1132): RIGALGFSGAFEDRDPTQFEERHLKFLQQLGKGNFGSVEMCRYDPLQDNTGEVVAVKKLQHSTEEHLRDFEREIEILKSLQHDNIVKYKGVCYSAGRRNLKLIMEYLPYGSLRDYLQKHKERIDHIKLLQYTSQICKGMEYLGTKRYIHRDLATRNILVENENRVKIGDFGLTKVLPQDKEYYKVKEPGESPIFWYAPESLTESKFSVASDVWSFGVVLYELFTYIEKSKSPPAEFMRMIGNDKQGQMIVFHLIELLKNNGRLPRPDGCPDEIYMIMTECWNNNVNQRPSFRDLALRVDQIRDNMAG

SMILES	IC50 [1] [nM]	IC50 [2] [nM]	IC50 [3] [nM]	IC50 [4] [nM]
COC(=O)N[C@@H]1CC[C@@H](n2c(=O)n(C)c3cnc(Nc4cc(NS(=O)(=O)C5CC(F)(F)C5)cc(C5CCOCC5)c4)cc32)C1 [Example 41, Methyl ((1R,3R)-3-(6-((3-((3,3-difluorocyclobutane)-1-sulfonamido)-5-(tetrahydro-2H-pyran-4-yl)phenyl)amino)-3-methyl-2-oxo-2,3-dihydro-1H-imidazo[4,5-c]pyridin-1-yl)cyclopentyl)carbamate]	10 to 100	> 1000	10 to 100	> 1000
COC(=O)Nc1cc(Nc2cc3c(cn2)n(C)c(=O)n3C2CCC(C)(NC(=O)OC)CC2)cc(-c2cnn(C)c2)c1 (centres unmarked) [Example 42, Methyl (3-((1-(4-((methoxycarbonyl)amino)-4-methylcyclohexyl)-3-methyl-2-oxo-2,3-dihydro-1H-imidazo[4,5-c]pyridin-6-yl)amino)-5-(1-methyl-1H-pyrazol-4-yl)phenyl)carbamate]	10 to 100	> 1000	10 to 100	> 1000
COCCOC(=O)N[C@@H]1CC[C@@H](n2c(=O)n(C)c3cnc(Nc4cc(NC(=O)OC5CCC5)cc(-c5cnn(C)c5)c4)cc32)C1 [Example 43, 2-Methoxyethyl ((1R,3R)-3-(6-((3-((cyclobutoxycarbonyl)amino)-5-(1-methyl-1H-pyrazol-4-yl)phenyl)amino)-3-methyl-2-oxo-2,3-dihydro-1H-imidazo[4,5-c]pyridin-1-yl)cyclopentyl)carbamate]	10 to 100	> 1000	10 to 100	> 1000
COC(=O)N[C@@H]1CC[C@@H](n2c(=O)n(C)c3cnc(Nc4cc(NC(=O)OC5CCC5)cc(C5CCOCC5)c4)cc32)C1 [Example 44, Methyl ((1R,3R)-3-(6-((3-((cyclobutoxycarbonyl)amino)-5-(tetrahydro-2H-pyran-4-yl)phenyl)amino)-3-methyl-2-oxo-2,3-dihydro-1H-imidazo[4,5-c]pyridin-1-yl)cyclopentyl)carbamate]	> 1000	> 1000	> 1000	> 1000
Cn1cc(-c2cc(NC(=O)OC3CCC3)cc(Nc3cc4c(cn3)n(C)c(=O)n4[C@@H]3CC[C@@H](NC(=O)OC4CCC4)C3)c2)cn1 [Example 45, Cyclobutyl ((1R,3R)-3-(6-((3-((cyclobutoxycarbonyl)amino)-5-(1-methyl-1H-pyrazol-4-yl)phenyl)amino)-3-methyl-2-oxo-2,3-dihydro-1H-imidazo[4,5-c]pyridin-1-yl)cyclopentyl)carbamate]	10 to 100	> 1000	10 to 100	> 1000
CCOC(=O)N[C@@H]1CC[C@@H](n2c(=O)n(C)c3cnc(Nc4cc(NC(=O)OC5CCC5)cc(-c5cnn(C)c5)c4)cc32)C1 [Example 46, Ethyl ((1R,3R)-3-(6-((3-((cyclobutoxycarbonyl)amino)-5-(1-methyl-1H-pyrazol-4-yl)phenyl)amino)-3-methyl-2-oxo-2,3-dihydro-1H-imidazo[4,5-c]pyridin-1-yl)cyclopentyl)carbamate]	10 to 100	> 1000	10 to 100	> 1000
C#CCOC(=O)N[C@@H]1CC[C@@H](n2c(=O)n(C)c3cnc(Nc4cc(NC(=O)OC5CCC5)cc(-c5cnn(C)c5)c4)cc32)C1 [Example 47, Prop-2-yn-1-yl ((1R,3R)-3-(6-((3-((cyclobutoxycarbonyl)amino)-5-(1-methyl-1H-pyrazol-4-yl)phenyl)amino)-3-methyl-2-oxo-2,3-dihydro-1H-imidazo[4,5-c)pyridin-1-yl)cyclopentyl)carbamate]	≤ 10	> 1000	≤ 10	> 1000
Cn1cc(-c2cc(NC(=O)OC3CCC3)cc(Nc3cc4c(cn3)n(C)c(=O)n4[C@@H]3CC[C@@H](NC(=O)OC4CCOCC4)C3)c2)cn1 [Example 48, Tetrahydro-2H-pyran-4-yl ((1R,3R)-3-(6-((3-((cyclobutoxycarbonyl)amino)-5-(1-methyl-1H-pyrazol-4-yl)phenyl)amino)-3-methyl-2-oxo-2,3-dihydro-1H-imidazo[4,5-c]pyridin-1-yl)cyclopentyl)carbamate]	10 to 100	> 1000	10 to 100	> 1000
Cn1cc(-c2cc(NC(=O)OC3CCC3)cc(Nc3cc4c(cn3)n(C)c(=O)n4[C@@H]3CC[C@@H](NC(=O)Oc4ccc(F)cc4)C3)c2)cn1 [Example 49, 4-Fluorophenyl ((1R,3R)-3-(6-((3-((cyclobutoxycarbonyl)amino)-5-(1-methyl-1H-pyrazol-4-yl)phenyl)amino)-3-methyl-2-oxo-2,3-dihydro-1H-imidazo[4,5-c]pyridin-1-yl)cyclopentyl)carbamate]	≤ 10	> 1000	≤ 10	> 1000
[2H]C([2H])([2H])n1c(=O)n([C@@H]2CC[C@@H](NC(=O)OC)C2)c2cc(Nc3cccc(C4CC4)n3)ncc21 [Example 50, Methyl ((1R,3R)-3-(6-((6-cyclopropylpyridin-2-yl)amino)-3-(methyl-d3)-2-oxo-2,3-dihydro-1H-imidazo[4,5-c]pyridin-1-yl)cyclopentyl)carbamate]	≤ 10	> 1000	10 to 100	> 1000
COC(=O)N[C@@H]1CC[C@@H](n2c(=O)n(C)c3cnc(Nc4cc(-c5cnn(C)c5)cc(-c5cccc(C#N)c5)n4)cc32)C1 [Example 51, Methyl ((1R,3R)-3-(6-((6-(3-cyanophenyl)-4-(1-methyl-1H-pyrazol-4-yl)pyridin-2-yl)amino)-3-methyl-2-oxo-2,3-dihydro-1H-imidazo[4,5-c]pyridin-1-yl)cyclopentyl)carbamate]	≤ 10	> 1000	10 to 100	> 1000
[2H]C([2H])([2H])n1c(=O)n([C@@H]2CC[C@@H](NC(=O)OC)C2)c2cc(Nc3cc(C(=O)N4CCOCC4)c4cccc(C(F)(F)F)c4n3)ncc21 [Example 52, Methyl ((1R,3R)-3-(3-(methyl-d3)-6-((4-(morpholine-4-carbonyl)-8-(trifluoromethyl)quinolin-2-yl)amino)-2-oxo-2,3-dihydro-1H-imidazo[4,5-c]pyridin-1-yl)cyclopentyl)carbamate]	≤ 10	500 to 1000	≤ 10	500 to 1000
COC(=O)Nc1cc(Nc2cc3c(cn2)n(C)c(=O)n3[C@@H]2CC[C@@H](NC(=O)OC)C2)cc(-c2cnn(C)c2)c1 [Example 53, Methyl ((1R,3R)-3-(6-((3-((methoxycarbonyl)amino)-5-(1-methyl-1H-pyrazol-4-yl)phenyl)amino)-3-methyl-2-oxo-2,3-dihydro-1H-imidazo[4,5-c]pyridin-1-yl)cyclopentyl)carbamate]	≤ 10	> 1000	10 to 100	> 1000
[2H]C([2H])([2H])n1c(=O)n([C@@H]2CC[C@@H](NC(=O)OC)C2)c2cc(Nc3ccc4ncc(C5CC5)n4n3)ncc21 [Example 54, Methyl ((1R,3R)-3-(6-((3-cyclopropylimidazo[1,2-b]pyridazin-6-yl)amino)-3-(methyl-d3)-2-oxo-2,3-dihydro-1H-imidazo[4,5-c]pyridin-1-yl)cyclopentyl)carbamate]	≤ 10	> 1000	≤ 10	> 1000
